Laboratory results as given in publication PMC10610214 (Pharmaceuticals, 2023).
Where “and” joins values, the source holds several entries; their conditions need not be identical. Equal entries are not always repeated.

Legend:
TNF-α in BV2 cells = test: TNF-α secretion in LPS-stimulated BV2 cells (ELISA); assay type: cell-based; settings: Mus musculus, BV-2, 24 h, read-out: TNF-α inhibition IC50
Method: The cytotoxicity of compounds on BV2 cells were evaluated by MTT assay and similar to those described in Section 2.5. The NO concentrations in medium were determined using Griess Reagent assay (Beyotime) in accordance with a previously reported method. Nitrite is reduced to nitrogen oxide using Griess Reagent I. Nitrogen oxide then reacts with Griess Reagent II forming a stable product that can be detected by its absorbance at […]. The two-step assay is simple, fast, and can detect nitrite levels as low as 1 nmol/well. BV2 cells were seeded into a 48-well plate at a density of 6.0 × 10^4 cells per well. After the cells were incubated overnight, the old medium was discarded. Then, the cells were pretreated with various concentrations (10, 5, 1, 0.5, and 0.1 μM) of compounds for 1 h and then co-incubated with LPS (1 μg/mL, 30 μL/well) for 24 h. After 24 h, the cell supernatant (50 μL/well) was placed into a new 96-well plate for experiment. […] The absorbance at […] was measured by a microplate reader.
The contents of TNF-α and IL-β in the cell supernatant were measured via ELISA (Jyimei, Wuhan, China) following the manufacturer’s instructions.

H2O2-induced PC12 cells = test: Neuroprotection against H2O2-induced PC12 cell injury (MTT); assay type: cell-based; settings: H2O2 250 μM, mean ± SEM
Method: Neuroprotection assay is similar to cytotoxicity. Oxidative cellular damage caused by H2O2 has become one of the important methods to study oxidative damage in neural cells. PC12 cells were seeded into a 96-well plate at a density of 5.0 × 10^3 cells per well. After the cells were incubated overnight, the old medium was discarded. […] After incubating overnight, 20 μL of MTT solution (5 mg/mL, Sigma-Aldrich) was added per well, and the cells were incubated for an additional 4 h. Afterwards, the supernatant was removed and 150 μL of DMSO was added. The 96-well plate was placed on the shaker for 10–15 min, and then the absorbance at 492 nm was measured by a microplate reader.

in vitro = in vitro ADME, SD rats; settings: pH 7.4
Method: The incubation was terminated at different time points by adding 0.5 mL of ice-cold CH3CN. A parallel incubation was performed in the absence of a NADPH-regenerating system with microsomes as the negative control, and the reactions were terminated after the corresponding time incubation. After centrifugation with 12,500 rpm at 4 °C for 10 min, the supernatant was directly analyzed by the HPLC UV systems (Agilent HPLC 1200 instrument). Three independent experiments were performed in triplicate.

DPPH radical scavenging = assay type: physicochemical; settings: vs no-compound group
Method: DPPH is a commercially available stable organic nitrogen radical with maximum UV absorption at 515 nm. After reduction, the color of the solution fades (absorbance decreases). Therefore, this method was used to evaluate the antioxidant capacity of the compounds. In short, 50 μL of DPPH (140 μM) and 50 μL of different concentrations (10, 100, and 1000 μM) of compound 4h were added together in a 96-well plate and then incubated in the dark at 37 °C for 2 h. The absorbance was measured at 515 nm through the multifunctional microplate reader. The scavenging rate (SR) of DPPH radicals was calculated by the following formula: SR = (1 − Ac/A0) × 100%, where “Ac” is the absorbance of DPPH and the compound solution incubating, and “A0” is the absorbance of the DPPH radical-ethanol solution alone. The experimental results are expressed as the average of three tests.

BV2 cells = test: Cytotoxicity in BV2 cells (MTT); assay type: cell-based
Method: The cytotoxicity and neuroprotective effects of the compounds on PC12 cells were evaluated by MTT assay. PC12 cells were seeded into a 96-well plate at a density of 5.0 × 10^3 cells per well. After the cells were incubated overnight, the old medium was discarded. The cells were incubated for another 24 h with fresh medium containing compounds at a concentration of 30 or 50 μM. A total of 20 μL of MTT solution (5 mg/mL, Sigma-Aldrich, Shanghai, China) was then added per well, and the cells were incubated for an additional 4 h. Afterwards, the supernatant was removed and 150 μL of DMSO was added to solubilize formazan crystals. The 96-well plate was placed on the shaker for 10–15 min, and then the absorbance at 492 nm was measured by a microplate reader.
The cytotoxicity of compounds on BV2 cells were evaluated by MTT assay and similar to those described in Section 2.5. The NO concentrations in medium were determined using Griess Reagent assay (Beyotime) in accordance with a previously reported method. Nitrite is reduced to nitrogen oxide using Griess Reagent I. Nitrogen oxide then reacts with Griess Reagent II forming a stable product that can be detected by its absorbance at […]. The two-step assay is simple, fast, and can detect nitrite levels as low as 1 nmol/well. BV2 cells were seeded into a 48-well plate at a density of 6.0 × 10^4 cells per well. […]

SY5Y cells = test: Cytotoxicity in SY5Y cells (MTT); assay type: cell-based
[1] = target: T1, BuChE (from equine serum) (Equus caballus, UniProt P81908); test: biochemical; settings: mean ± SD of three experiments, read-out: BuChE Inhibition (IC50)
T1 construct: BuChE (from equine serum); purchased Sigma Chemical Company (St. Louis, MO, USA); host or cells: equine serum
T1 sequence (P81908 whole entry): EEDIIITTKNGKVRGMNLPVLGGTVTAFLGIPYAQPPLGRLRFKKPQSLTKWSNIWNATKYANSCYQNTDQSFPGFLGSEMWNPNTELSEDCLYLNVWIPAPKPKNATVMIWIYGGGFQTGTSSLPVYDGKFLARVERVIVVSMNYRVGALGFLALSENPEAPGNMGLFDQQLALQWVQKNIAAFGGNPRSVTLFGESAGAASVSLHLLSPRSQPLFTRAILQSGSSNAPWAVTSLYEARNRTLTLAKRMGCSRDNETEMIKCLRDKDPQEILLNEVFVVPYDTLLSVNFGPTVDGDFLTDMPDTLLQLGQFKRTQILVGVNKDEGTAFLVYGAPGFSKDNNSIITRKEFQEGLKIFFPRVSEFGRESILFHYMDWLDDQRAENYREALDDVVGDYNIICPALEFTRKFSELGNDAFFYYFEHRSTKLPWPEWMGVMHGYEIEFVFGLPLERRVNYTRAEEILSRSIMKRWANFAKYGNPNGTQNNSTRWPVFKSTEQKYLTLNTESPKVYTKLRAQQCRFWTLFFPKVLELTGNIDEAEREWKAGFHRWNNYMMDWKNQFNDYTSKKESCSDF
Method: (§1) The ChE inhibitory activity of the test compounds was determined using the modified Ellman’s method. The compounds were dissolved in DMSO (10 mmol/L) and then diluted with PB (phosphate buffer) solution to attain a range of final concentrations. […] Briefly, 100 μL of different concentrations of the test or standard compounds and 100 μL of AChE/BuChE (0.5 U/mL) were added into 48-well plates and then co-incubated at 37 °C for 30 min. […] All concentrations mentioned are final.

AChE (from electric eel) = target: T2, AChE (from electric eel) (Electrophorus electricus, UniProt O42275); test: biochemical
T2 construct: AChE (from electric eel); purchased Sigma Chemical Company (St. Louis, MO, USA)
T2 sequence (O42275 24-633): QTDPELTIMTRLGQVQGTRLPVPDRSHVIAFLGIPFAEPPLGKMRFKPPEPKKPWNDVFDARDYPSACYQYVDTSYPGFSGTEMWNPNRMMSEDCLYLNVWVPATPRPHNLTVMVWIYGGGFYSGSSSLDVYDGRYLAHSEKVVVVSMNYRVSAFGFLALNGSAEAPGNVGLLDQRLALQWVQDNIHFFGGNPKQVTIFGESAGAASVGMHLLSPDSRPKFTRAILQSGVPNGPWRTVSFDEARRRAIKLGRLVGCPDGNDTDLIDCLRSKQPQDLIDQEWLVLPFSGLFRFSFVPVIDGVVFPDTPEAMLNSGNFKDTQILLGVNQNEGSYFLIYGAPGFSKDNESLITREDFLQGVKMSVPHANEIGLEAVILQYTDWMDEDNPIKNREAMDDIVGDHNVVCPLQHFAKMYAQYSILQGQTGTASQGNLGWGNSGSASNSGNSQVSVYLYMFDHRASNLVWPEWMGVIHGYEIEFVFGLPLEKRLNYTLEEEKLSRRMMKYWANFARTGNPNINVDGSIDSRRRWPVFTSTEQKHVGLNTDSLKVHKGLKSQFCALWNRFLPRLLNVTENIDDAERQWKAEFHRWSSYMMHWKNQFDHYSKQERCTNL
Method: as §1

Aβ1-42 = Aβ1-42 (Homo sapiens, UniProt P05067); test: TEM of Aβ1-42 self-aggregation; settings: 4h 100 μM, Aβ1-42 5 μM, 48 h
Sequence of Aβ1-42 (P05067 672-713 limits assumed): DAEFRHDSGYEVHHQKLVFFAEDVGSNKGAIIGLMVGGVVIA
Method: Transmission Electron Microscope (TEM) studies were performed as previously described. […] After 2 days, a copper mesh was used to adsorb the samples, then stained with phosphotungstic acid, and the Aβ1-42 self-aggregation by TEM was observed (Talos L1200C, Thermo Fisher Scientific, Waltham, MA, USA).

With `O=C1c2cc(NS(=O)(=O)c3ccccc3F)ccc2-n2c1nc1ccccc1c2=O` [4h] as the molecule, how does the IC50 (TNF-α in BV2 cells) read?
Its IC50 is 1310 ± 280 nM.

What about the “H2O2-Induced PC12 Cell Viability (% of Control)” value (H2O2-induced PC12 cells; compound 10 μM) of the same molecule?
The value was 61.66 ± 1.3 % of Control.

And the “H2O2-Induced PC12 Cell Viability (% of Control)” value (H2O2-induced PC12 cells; compound 30 μM)?
The value was 71.31 ± 1.9 % of Control.

And the K (in vitro; SD, rat, 100 μM)?
Its K is 0.00574 ± 0.00037 min⁻¹.

What about the half-life at 100 μM (in vitro; SD rat liver microsomes) of the same molecule?
The half-life at 100 μM was 1.8 ± 0.0817 h.

And the “Concentration of DPPH (%)” value (DPPH radical scavenging; 10 μM compound)?
The value was 84.76 ± 4.21% and 84.76%.

And the “Concentration of DPPH (%)” value (DPPH radical scavenging; 100 μM compound)?
The value was 74.6 ± 2.51%.

What about the “Concentration of DPPH (%)” value (DPPH radical scavenging; 1000 μM compound) of the same molecule?
Its value is 36.51 ± 2.78% and 36.51%.

And the “Cell Viability (% of Control)” value (BV2 cells; 30 μM)?
The value was 101.23 ± 1.82 % of control.

What about the “Cell Viability (% of Control)” value (BV2 cells; 50 μM) of the same molecule?
Its value is 97.44 ± 1.36 % of control.

What about the “Cell Viability (% of Control)” value (SY5Y cells; 30 μM) of the same molecule?
Its value is 97.84 ± 1.24 % of control.

And the “Cell Viability (% of Control)” value (SY5Y cells; 50 μM)?
Its value is 91.33 ± 1.48 % of control.

What about the IC50 [1] of the same molecule?
Its IC50 is 6110 ± 150 nM.

What about the IC50 (AChE (from electric eel); AChE from electric eel, mean ± SD of three experiments, read-out: AChE Inhibition (IC50)) of the same molecule?
Its IC50 is 130 ± 40 nM.

And the “Selective Index, IC50 (BChE)/IC50 (AChE)” value (AChE (from electric eel); AChE selectivity index)?
Its value is 47.

And the “Morphology of Aβ1-42 aggregates (TEM)” value (Aβ1-42)?
Its value is “aggregation of Aβ1-42 samples was remarkably reduced”.
